Laboratory results taken from US10722514B2 (FLX Bio, Inc., priority 2017, dated 2020).
Read-outs that look alike come from different tables or passages of the source.

Biological target: T1, recombinant full-length USP7 (Homo sapiens, UniProt Q93009)
T1 construct: A 25 μl reaction volume containing recombinant full-length USP7 (62 pM)
Test: USP7-mediated ubiquitin-rhodamine cleavage assay
Assay type: biochemical
Settings: recombinant full-length USP7 62 pM, ubiquitin-rhodamine 100 nM, 1 hour reaction at room temperature
Method in brief: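 IC50 values came from fluorescence measured after a 1 h room-temperature reaction of 62 pM enzyme with 100 nM ubiquitin-rhodamine, following 30 min compound preincubation; fits used four parameters.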

[1] = 30-minute incubation with compound, read-out: Potency: USP7 IC50
[2] = 30-minute pre-incubation, read-out: Potency (USP7 IC50)

T1 sequence (Q93009 whole entry): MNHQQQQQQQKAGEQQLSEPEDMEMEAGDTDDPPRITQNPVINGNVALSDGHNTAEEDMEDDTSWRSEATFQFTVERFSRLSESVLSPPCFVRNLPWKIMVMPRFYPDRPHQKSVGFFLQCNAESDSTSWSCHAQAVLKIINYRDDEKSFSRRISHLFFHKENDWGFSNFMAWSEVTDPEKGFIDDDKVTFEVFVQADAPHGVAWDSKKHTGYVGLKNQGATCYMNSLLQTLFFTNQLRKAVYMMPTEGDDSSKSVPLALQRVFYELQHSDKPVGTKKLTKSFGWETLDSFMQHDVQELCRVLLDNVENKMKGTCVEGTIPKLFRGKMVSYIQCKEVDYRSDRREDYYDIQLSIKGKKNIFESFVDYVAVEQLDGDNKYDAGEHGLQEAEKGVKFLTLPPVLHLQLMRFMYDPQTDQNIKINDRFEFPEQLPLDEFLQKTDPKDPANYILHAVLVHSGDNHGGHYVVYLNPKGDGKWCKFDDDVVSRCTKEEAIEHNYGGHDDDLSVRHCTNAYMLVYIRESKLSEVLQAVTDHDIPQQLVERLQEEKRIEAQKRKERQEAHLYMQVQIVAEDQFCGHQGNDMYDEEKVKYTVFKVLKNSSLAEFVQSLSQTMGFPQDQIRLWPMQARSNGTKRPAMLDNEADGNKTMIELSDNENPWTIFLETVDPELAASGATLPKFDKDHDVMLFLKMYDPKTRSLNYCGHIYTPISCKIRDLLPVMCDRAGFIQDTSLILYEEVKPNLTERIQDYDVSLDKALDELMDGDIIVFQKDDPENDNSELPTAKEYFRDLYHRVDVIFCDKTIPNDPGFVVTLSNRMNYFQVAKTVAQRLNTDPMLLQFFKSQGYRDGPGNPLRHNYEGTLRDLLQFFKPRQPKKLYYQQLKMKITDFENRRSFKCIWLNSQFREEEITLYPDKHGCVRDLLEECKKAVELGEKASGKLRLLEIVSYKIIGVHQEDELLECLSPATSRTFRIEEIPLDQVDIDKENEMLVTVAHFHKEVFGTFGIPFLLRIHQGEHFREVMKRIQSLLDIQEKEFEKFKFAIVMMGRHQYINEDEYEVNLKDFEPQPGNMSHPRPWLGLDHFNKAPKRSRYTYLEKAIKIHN

SMILES	IC50 [1] [nM]	other results
Cc1cc(Cl)cc(-c2ncnc3cc(Cn4c(C(F)(F)F)cccc4=O)sc23)c1O[C@@H]1CNC[C@@H]1F [Example 148, 1-((4-(5-Chloro-2-(((3R,4S)-4-fluoropyrrolidin-3-yl)oxy)-3-methylphenyl)thieno[3,2-d]pyrimidin-6-yl)methyl)-6-(trifluoromethyl)pyridin-2(1H)-one]	10000 to 30000	–
OCc1cc2nccc(-c3cc(F)cc(Br)c3O[C@H]3CCCNC3)c2s1 [Example 169, (S)-(7-(3-Bromo-5-fluoro-2-(piperidin-3-yloxy)phenyl)thieno[3,2-b]pyridin-2-yl)methanol]	10000 to 30000	–
Cc1cc(Cl)cc(-c2ccnc3cc(Cn4c(=O)ccn(C)c4=O)sc23)c1OC1CC2CC1CN2 (stereo not drawn) [Example 476, 3-[[7-[2-(2-azabicyclo[2.2.1]heptan-5-yloxy)-5-chloro-3-methyl-phenyl]thieno[3,2-b]pyridin-2-yl]methyl]-1-methyl-pyrimidine-2,4-dione; 2,2,2-trifluoroacetic acid]	–	IC50 [2]: < 1000 nM
Cc1cc(Cl)cc(-c2ccnc3cc(CO)sc23)c1OCC1CCNC1 (stereo not drawn) [Example 70, (7-(5-Chloro-3-methyl-2-(pyrrolidin-3-ylmethoxy)phenyl)thieno[3,2-b]pyridin-2-yl)methanol]	10000 to 30000	–
Cc1cc(Cl)cc(-c2ccnc3cc(Cn4c(=O)ccn(CC(F)(F)F)c4=O)sc23)c1OC1CC(N2CC(O)C2)C1 (stereo not drawn) [Example 700, 3-[[7-[5-chloro-2-[3-(3-hydroxyazetidin-1-yl)cyclobutoxy]-3-methyl-phenyl]thieno[3,2-b]pyridin-2-yl]methyl]-1-(2,2,2-trifluoroethyl)pyrimidine-2,4-dione; 2,2,2-trifluoroacetic acid]	–	IC50 (30-minute incubation, read-out: Potency (USP7 IC50)): < 1000 nM
CCO[C@H]1CNC[C@H]1Oc1c(C)cc(Cl)cc1-c1ccnc2cc(CO)sc12 [Example 73, (7-(5-Chloro-2-(((3R,4S)-4-ethoxypyrrolidin-3-yl)oxy)-3-methylphenyl)thieno[3,2-b]pyridin-2-yl)methanol]	10000 to 30000	–
Cc1cc(Cl)cc(-c2ccnc3cc(CO)sc23)c1OCC1(F)CNC1 [Example 20, (7-(5-Chloro-2-((3-fluoroazetidin-3-yl)methoxy)-3-methylphenyl)thieno[3,2-b]pyridin-2-yl)methanol]	1000 to 10000	–
Cc1cc2nccc(-c3cc(C#N)cc(C)c3O[C@H]3CCCNC3)c2s1 [Example 182, (S)-3-Methyl-5-(2-methylthieno[3,2-b]pyridin-7-yl)-4-(piperidin-3-yloxy)benzonitrile]	10000 to 30000	–
Cc1cc(Cl)cc(-c2ccnc3cc(CO)sc23)c1OC[C@H]1CCN1 [Example 16, (R)-(7-(2-(Azetidin-2-ylmethoxy)-5-chloro-3-methylphenyl)thieno[3,2-b]pyridin-2-yl)methanol]	10000 to 30000	–
Cc1cc(Cl)cc(-c2ccnc3cc(Cn4c(=O)ccn(CC(F)(F)F)c4=O)sc23)c1O[C@@H]1CNC[C@H]1C [Example 628, 3-[[7-[5-chloro-3-methyl-2-[(3S,4R)-4-methylpyrrolidin-3-yl]oxy-phenyl]thieno[3,2-b]pyridin-2-yl]methyl]-1-(2,2,2-trifluoroethyl)pyrimidine-2,4-dione]	–	IC50 [2]: < 1000 nM
Cc1cc(Cl)cc(-c2ccnc3cc(Cn4c(=O)ccn(C)c4=O)sc23)c1OC1CCNCC1(C)C (stereo not drawn) [Example 546, 3-[[7-[5-chloro-2-[(3,3-dimethyl-4-piperidyl)oxy]-3-methyl-phenyl]thieno[3,2-b]pyridin-2-yl]methyl]-1-methyl-pyrimidine-2,4-dione; 2,2,2-trifluoroacetic acid]	–	IC50 [2]: < 1000 nM
Cc1cc(Cl)cc(-c2ccnc3cc(Cn4c(=O)ccn(C)c4=O)sc23)c1O[C@@H]1CC[C@@H](N)C1 [Example 426, 3-[[7-[2-[(1R,3R)-3-aminocyclopentoxy]-5-chloro-3-methyl-phenyl]thieno[3,2-b]pyridin-2-yl]methyl]-1-methyl-pyrimidine-2,4-dione; 2,2,2-trifluoroacetic acid]	–	IC50 [2]: < 1000 nM
Cc1cc(Cl)cc(-c2ccnc3cc(Cn4c(=O)ccn(C)c4=O)sc23)c1O[C@H]1CCNC[C@@H]1F [Example 569]	–	IC50 [2]: < 1000 nM
CCC(O)c1cc2nccc(-c3cc(Cl)cc(C)c3O[C@H]3C[C@H]4CC[C@@H](C3)N4)c2s1 (stereo partly drawn) [Example 199, 1-(7-(2-(((1R,3r,5S)-8-Azabicyclo[3.2.1]octan-3-yl)oxy)-5-chloro-3-methylphenyl)thieno[3,2-b]pyridin-2-yl)propan-1-ol]	1000 to 10000	–
Cc1cc2nccc(-c3cc(Cl)ccc3OCC3CNC3)c2s1 [Example 28, 7-(2-(Azetidin-3-ylmethoxy)-5-chlorophenyl)-2-methylthieno[3,2-b]pyridine]	1000 to 10000	–
Cc1cc(Cl)cc(-c2ccnc(CCCN3C(=O)CCC3=O)c2)c1OC1CNC[C@@H]1F (stereo partly drawn) [Example 408, 1-[3-[4-[5-chloro-2-[(4S)-4-fluoropyrrolidin-3-yl]oxy-3-methyl-phenyl]-2-pyridyl]propyl]pyrrolidine-2,5-dione; 2,2,2-trifluoroacetic acid]	–	IC50 [2]: 1000 to 10000 nM
Cc1cc(Cl)cc(-c2ccnc3cc(CN4C(=O)CCC4=O)sc23)c1O[C@H]1CCCN(C)C1 [Example 448, 1-[[7-[5-chloro-3-methyl-2-[[(3S)-1-methyl-3-piperidyl]oxy]phenyl]thieno[3,2-b]pyridin-2-yl]methyl]pyrrolidine-2,5-dione]	–	IC50 [2]: < 1000 nM
CC[C@@H]1C[C@H](Oc2c(C)cc(Cl)cc2-c2ccnc3cc(Cn4c(=O)ccn(CC(F)(F)F)c4=O)sc23)CCN1 [Example 636, 3-[[7-[5-chloro-2-[[(2R,4R)-2-ethyl-4-piperidyl]oxy]-3-methyl-phenyl]thieno[3,2-b]pyridin-2-yl]methyl]-1-(2,2,2-trifluoroethyl)pyrimidine-2,4-dione]	–	IC50 [2]: < 1000 nM

Now from value to compound, other results behind:

IC50 [1] [nM]	SMILES	other results
< 1000	CCN1C[C@H]2C[C@@H]1[C@H](Oc1c(C)cc(Cl)cc1-c1ccnc3cc(CN4C(=O)C5CC5C4=O)sc13)C2 (stereo partly drawn) [Example 320, 3-[[7-[5-chloro-2-[[(1S,4R,5R)-3-ethyl-3-azabicyclo[2.2.1]heptan-5-yl]oxy]-3-methyl-phenyl]thieno[3,2-b]pyridin-2-yl]methyl]-3-azabicyclo[3.1.0]hexane-2,4-dione]	–
< 1000	Cc1cc(Cl)cc(-c2ccnc3cc(CN4C(=O)CCC4=O)sc23)c1OC1CCNC1C (stereo not drawn) [Example 118, 1-((7-(5-Chloro-3-methyl-2-((2-methylpyrrolidin-3-yl)oxy)phenyl)thieno[3,2-b]pyridin-2-yl)methyl)pyrrolidine-2,5-dione]	–
< 1000	Cc1cc(Cl)cc(-c2ccnc3cc(CN4C(=O)CCN(C)C4=O)sc23)c1OC1CCNCC1 [Example 203, 3-((7-(5-Chloro-3-methyl-2-(piperidin-4-yloxy)phenyl)thieno[3,2-b]pyridin-2-yl)methyl)-1-methyldihydropyrimidine-2,4(1H,3H)-dione]	–
1000 to 10000	Cc1cc(Cl)cc(-c2ccnc3cc(CN4C(=O)CCC4=O)sc23)c1O[C@@H]1CNC(C(=O)N(C)C)C1 (stereo partly drawn) [Example 64, (4S)-4-(4-Chloro-2-(2-((2,5-dioxopyrrolidin-1-yl)methyl)thieno[3,2-b]pyridin-7-yl)-6-methylphenoxy)-N,N-dimethylpyrrolidine-2-carboxamide]	–
< 1000	Cc1cc(Cl)cc(-c2ccnc3cc(CN4C(=O)CCC4=O)sc23)c1OC1CCNC(C)(C)C1 (stereo not drawn) [Example 205, 1-((7-(5-Chloro-2-((2,2-dimethylpiperidin-4-yl)oxy)-3-methylphenyl)thieno[3,2-b]pyridin-2-yl)methyl)pyrrolidine-2,5-dione]	–
1000 to 10000	Cc1cc(Cl)cc(-c2ccnc3cc(CN4C(=O)CN(C)C4=O)sc23)c1OC1CCNCC1 [Example 224, 3-((7-(5-Chloro-3-methyl-2-(piperidin-4-yloxy)phenyl)thieno[3,2-b]pyridin-2-yl)methyl)-1-methylimidazolidine-2,4-dione]	–
< 1000	Cc1cc(Cl)cc(-c2ccnc3cc(CN4C(=O)CCC4=O)sc23)c1OC1CCN(C)CC1 [Example 216, 1-((7-(5-Chloro-3-methyl-2-((I-methylpiperidin-4-yl)oxy)phenyl)thieno[3,2-b]pyridin-2-yl)methyl)pyrrolidine-2,5-dione]	–
< 1000	Cc1cc(Cl)cc(-c2ccnc3cc(CN4C(=O)CCC4=O)sc23)c1O[C@@H]1C[C@H]2CN[C@@H]1C2 [Example 298, 1-[[7-[2-[[(1S,4R,5R)-3-azabicyclo[2.2.1]heptan-5-yl]oxy]-5-chloro-3-methyl-phenyl]thieno[3,2-b]pyridin-2-yl]methyl]pyrrolidine-2,5-dione]	–
< 1000	CO[C@H]1CNC[C@H]1Oc1c(C)cc(Cl)cc1-c1ccnc2cc(CN3C(=O)CCC3=O)sc12 [Example 106, 1-((7-(5-Chloro-2-(((3R,4S)-4-methoxypyrrolidin-3-yl)oxy)-3-methylphenyl)thieno[3,2-b]pyridin-2-yl)methyl)pyrrolidine-2,5-dione]	–
< 1000	Cc1cc(Cl)cc(-c2ccnc3cc(Cn4c(=O)ccn(CC(F)(F)F)c4=O)sc23)c1O[C@@H]1CNCC[C@@H]1C [Example 337, 3-[[7-[5-chloro-3-methyl-2-[[(3S,4S)-4-methyl-3-piperidyl]oxy]phenyl]thieno[3,2-b]pyridin-2-yl]methyl]-1-(2,2,2-trifluoroethyl)pyrimidine-2,4-dione]	–
1000 to 10000	Cc1cc(Cl)cc(-c2ncnc3cc(CN4C(=O)CCC4=O)sc23)c1O[C@@H]1CNC[C@@H]1F [Example 113, 1-((4-(5-Chloro-2-(((3R,4S)-4-fluoropyrrolidin-3-yl)oxy)-3-methylphenyl)thieno[3,2-d]pyrimidin-6-yl)methyl)pyrrolidine-2,5-dione]	–
> 30000	Cc1cc(Cl)cc(-c2ccnc3cc(CO)sc23)c1OC1CCCNC1=O (stereo not drawn) [Example 200, 3-(4-Chloro-2-(2-(hydroxymethyl)thieno[3,2-b]pyridin-7-yl)-6-methylphenoxy)piperidin-2-one]	–
